# Values quoted from earlier work in US20120196335A1, “LIGF-TYPE TRANSFORMANTS FOR BIOCONVERSION OF LIGNIN-DERIVED COMPOUNDS” (priority 2010, published 2012).
# System: Escherichia coli
# Details: benzaldehyde derivatives, each alone; cited from earlier work
row,SMILES,antibacterial activity against Escherichia coli
1,"O=Cc1ccc(O)c(O)c1O [2,3,4-trihydroxybenzaldehyde]",antibacterial activity
2,"O=Cc1cccc(O)c1O [2,3-dihydroxybenzaldehyde]",antibacterial activity
3,"O=Cc1c(O)cc(O)cc1O [2,4,6-trihydroxybenzaldehyde]",antibacterial activity
4,"O=Cc1ccc(O)cc1O [2,4-dihydroxybenzaldehyde]",antibacterial activity
5,"O=Cc1cc(O)ccc1O [2,5-dihydroxybenzaldehyde]",antibacterial activity
6,COc1cccc(C=O)c1O [2-hydroxy-3-methoxybenzaldehyde],antibacterial activity
7,COc1ccc(O)c(C=O)c1 [2-hydroxy-5-methoxybenzaldehyde],antibacterial activity
8,O=Cc1ccccc1O [2-hydroxybenzaldehyde],antibacterial activity
9,"COc1cc(O)cc(OC)c1C=O [4-hydroxy-2,6-dimethoxybenzaldehyde]",antibacterial activity

# Same assay, conditions: each compound alone; known; cited from earlier work
row,SMILES,antimicrobial activity against Escherichia coli
1,O=Cc1ccc(O)cc1 [4-hydroxybenzaldehyde],antimicrobial activity
2,O=Cc1ccc(CO)o1 [5-hydroxymethylfurfural],antimicrobial activity
3,O=Cc1ccco1 [furfural],antimicrobial activity
4,COc1cc(C=O)cc(OC)c1O [syringaldehyde],antimicrobial activity
5,COc1cc(C=O)ccc1O [vanillin],antimicrobial activity
